In assay [1] the target is T1, Serine/threonine-protein kinase D1 (Homo sapiens) (UniProt Q15139).
T1 sequence (whole entry): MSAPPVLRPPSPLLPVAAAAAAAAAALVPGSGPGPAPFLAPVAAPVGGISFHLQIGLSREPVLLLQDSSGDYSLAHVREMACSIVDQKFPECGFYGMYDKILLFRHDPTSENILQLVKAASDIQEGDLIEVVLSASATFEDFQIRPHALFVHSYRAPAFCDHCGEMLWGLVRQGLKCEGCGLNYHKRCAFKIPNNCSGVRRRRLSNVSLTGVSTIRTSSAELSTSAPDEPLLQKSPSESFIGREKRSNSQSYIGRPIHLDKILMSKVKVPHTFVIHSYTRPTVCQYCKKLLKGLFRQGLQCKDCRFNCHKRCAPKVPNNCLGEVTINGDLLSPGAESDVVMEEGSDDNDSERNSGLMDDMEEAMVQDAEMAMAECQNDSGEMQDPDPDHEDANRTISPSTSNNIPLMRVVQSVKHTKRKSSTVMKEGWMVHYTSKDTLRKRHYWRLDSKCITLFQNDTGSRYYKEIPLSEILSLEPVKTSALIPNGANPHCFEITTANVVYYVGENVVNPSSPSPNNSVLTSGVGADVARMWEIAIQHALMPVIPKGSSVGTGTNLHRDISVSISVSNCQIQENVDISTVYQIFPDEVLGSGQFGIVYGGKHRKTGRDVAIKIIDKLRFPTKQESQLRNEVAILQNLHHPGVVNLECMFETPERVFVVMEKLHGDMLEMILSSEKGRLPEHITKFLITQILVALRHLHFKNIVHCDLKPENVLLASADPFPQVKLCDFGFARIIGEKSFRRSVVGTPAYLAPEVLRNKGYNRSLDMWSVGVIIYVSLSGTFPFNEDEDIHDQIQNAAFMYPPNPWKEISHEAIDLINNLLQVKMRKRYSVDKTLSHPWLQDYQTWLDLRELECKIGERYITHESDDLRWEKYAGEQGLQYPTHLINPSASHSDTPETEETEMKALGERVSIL
The conditions noted are these: at 10 µM.

Assay [2] deals with Serine/threonine-protein kinase 33 (Homo sapiens) (UniProt Q9BYT3). Briefly: Selectivity interaction (Ambit KINOMEscan and KiNATiv profiling in Jurkat cells) EUB0000090b STK33. Type of assay: cell-based. As to conditions: at 1 µM.
Serine/threonine-protein kinase 33 (Homo sapiens), sequence (Q9BYT3 whole entry, looked up): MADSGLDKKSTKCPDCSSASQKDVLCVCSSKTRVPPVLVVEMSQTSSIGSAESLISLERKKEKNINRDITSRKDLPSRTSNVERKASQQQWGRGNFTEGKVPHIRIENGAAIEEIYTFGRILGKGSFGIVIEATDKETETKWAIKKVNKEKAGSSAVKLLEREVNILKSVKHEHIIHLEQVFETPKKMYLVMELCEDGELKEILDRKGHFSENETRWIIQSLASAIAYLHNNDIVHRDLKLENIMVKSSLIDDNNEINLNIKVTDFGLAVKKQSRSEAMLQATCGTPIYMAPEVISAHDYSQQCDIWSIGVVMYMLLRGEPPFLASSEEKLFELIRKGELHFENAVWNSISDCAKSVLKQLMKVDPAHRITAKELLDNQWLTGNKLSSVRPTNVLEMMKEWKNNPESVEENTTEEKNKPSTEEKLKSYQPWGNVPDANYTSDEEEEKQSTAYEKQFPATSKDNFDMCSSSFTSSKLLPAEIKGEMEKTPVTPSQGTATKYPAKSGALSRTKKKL
In assay [3] the target is Dual specificity protein kinase CLK4 (Homo sapiens, UniProt Q9HAZ1). The conditions noted are these: at 10 µM.
Dual specificity protein kinase CLK4, sequence (Q9HAZ1 whole entry, looked up): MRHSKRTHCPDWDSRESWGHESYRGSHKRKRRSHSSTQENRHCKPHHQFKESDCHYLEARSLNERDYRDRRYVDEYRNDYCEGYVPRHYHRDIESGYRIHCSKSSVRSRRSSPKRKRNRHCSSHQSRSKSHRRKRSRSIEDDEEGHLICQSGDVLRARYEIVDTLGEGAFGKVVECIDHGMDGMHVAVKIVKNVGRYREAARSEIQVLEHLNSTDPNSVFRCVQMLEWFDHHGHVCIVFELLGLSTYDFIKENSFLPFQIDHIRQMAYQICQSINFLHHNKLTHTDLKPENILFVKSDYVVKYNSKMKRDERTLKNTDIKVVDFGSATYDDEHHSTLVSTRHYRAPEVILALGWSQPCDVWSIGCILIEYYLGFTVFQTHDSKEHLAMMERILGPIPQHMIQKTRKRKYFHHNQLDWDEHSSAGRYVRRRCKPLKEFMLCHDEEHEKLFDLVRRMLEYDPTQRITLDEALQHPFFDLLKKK
Assay [4] addresses MAP/microtubule affinity-regulating kinase 3 (Homo sapiens) (UniProt P27448). Nature of the assay: Selectivity interaction (KinomeScan (DiscoverX)) EUB0000092b MARK3. As to conditions: at 10 µM.
The target in assay [5] is T2, Dual specificity mitogen-activated protein kinase kinase 4 (Homo sapiens) (UniProt P45985).
T2 sequence (whole entry): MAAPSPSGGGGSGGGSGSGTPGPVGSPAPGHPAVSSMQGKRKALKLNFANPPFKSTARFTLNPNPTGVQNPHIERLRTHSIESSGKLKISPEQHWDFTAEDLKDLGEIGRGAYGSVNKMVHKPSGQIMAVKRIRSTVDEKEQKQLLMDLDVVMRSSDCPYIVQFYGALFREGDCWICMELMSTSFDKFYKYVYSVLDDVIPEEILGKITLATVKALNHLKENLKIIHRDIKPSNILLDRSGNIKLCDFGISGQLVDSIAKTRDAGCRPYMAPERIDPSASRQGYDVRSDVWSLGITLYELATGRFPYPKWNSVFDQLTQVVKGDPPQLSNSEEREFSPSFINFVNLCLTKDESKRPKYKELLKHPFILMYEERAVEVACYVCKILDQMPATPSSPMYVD
Nature of the assay: Selectivity interaction (KinomeScan (DiscoverX)) EUB0000695a MAP2K4. As to conditions: at 100 nM.

The target in assay [6] is Inactive tyrosine-protein kinase PEAK1 (Homo sapiens) (UniProt Q9H792). Briefly: Selectivity interaction (Kinase panel (Z-LYTE Assay)) EUB0001632a PEAK1. The conditions noted are these: at 10 µM.
For assay [7], the target named is Hepatocyte growth factor receptor (Homo sapiens, UniProt P08581). Briefly: Selectivity interaction (Rxn Biology Kinase assay) EUB0001632a MET. As to conditions: at 10 µM.
Assay [8] deals with Dual specificity mitogen-activated protein kinase kinase 2 (Homo sapiens) (UniProt P36507). Briefly: Selectivity interaction (Rxn Biology Kinase assay) EUB0001632a MAP2K2. As to conditions: at 10 µM.
Dual specificity mitogen-activated protein kinase kinase 2 (Homo sapiens), sequence (P36507 whole entry): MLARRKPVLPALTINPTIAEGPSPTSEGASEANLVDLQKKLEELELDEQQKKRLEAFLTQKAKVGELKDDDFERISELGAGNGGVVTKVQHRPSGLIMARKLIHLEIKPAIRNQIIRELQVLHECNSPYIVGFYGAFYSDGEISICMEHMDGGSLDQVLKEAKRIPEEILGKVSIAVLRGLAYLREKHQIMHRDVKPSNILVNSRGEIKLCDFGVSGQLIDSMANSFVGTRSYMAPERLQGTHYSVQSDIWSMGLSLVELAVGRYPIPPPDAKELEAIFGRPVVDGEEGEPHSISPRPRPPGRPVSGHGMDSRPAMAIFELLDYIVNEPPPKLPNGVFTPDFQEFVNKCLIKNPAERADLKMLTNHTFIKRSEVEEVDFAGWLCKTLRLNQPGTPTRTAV
Assay [9] has as its target Cyclin-dependent kinase 13 (Homo sapiens, UniProt Q14004). Nature of the assay: Selectivity interaction (KinomeScan (DiscoverX)) EUB0000607a CDK13. As to conditions: at 10 µM.
The target of assay [10] is Serine/threonine-protein kinase 38-like (Homo sapiens) (UniProt Q9Y2H1). Nature of the assay: Selectivity interaction (ActivX KiNativ screen (kinase selectivity in THP-1 cell lysates)) EUB0000639a STK38L. The format is subcellular. The conditions noted are these: lysate, at 0.2 µM.
The target in assay [11] is Serine/threonine-protein kinase 24 (Homo sapiens) (UniProt Q9Y6E0). Nature of the assay: Selectivity interaction (Kinase panel (Invitrogen)) EUB0000639a STK24. As to conditions: at 200 nM.
In assay [12] the target is T3, Cytoplasmic tyrosine-protein kinase BMX (Homo sapiens) (UniProt P51813).
T3 sequence (whole entry): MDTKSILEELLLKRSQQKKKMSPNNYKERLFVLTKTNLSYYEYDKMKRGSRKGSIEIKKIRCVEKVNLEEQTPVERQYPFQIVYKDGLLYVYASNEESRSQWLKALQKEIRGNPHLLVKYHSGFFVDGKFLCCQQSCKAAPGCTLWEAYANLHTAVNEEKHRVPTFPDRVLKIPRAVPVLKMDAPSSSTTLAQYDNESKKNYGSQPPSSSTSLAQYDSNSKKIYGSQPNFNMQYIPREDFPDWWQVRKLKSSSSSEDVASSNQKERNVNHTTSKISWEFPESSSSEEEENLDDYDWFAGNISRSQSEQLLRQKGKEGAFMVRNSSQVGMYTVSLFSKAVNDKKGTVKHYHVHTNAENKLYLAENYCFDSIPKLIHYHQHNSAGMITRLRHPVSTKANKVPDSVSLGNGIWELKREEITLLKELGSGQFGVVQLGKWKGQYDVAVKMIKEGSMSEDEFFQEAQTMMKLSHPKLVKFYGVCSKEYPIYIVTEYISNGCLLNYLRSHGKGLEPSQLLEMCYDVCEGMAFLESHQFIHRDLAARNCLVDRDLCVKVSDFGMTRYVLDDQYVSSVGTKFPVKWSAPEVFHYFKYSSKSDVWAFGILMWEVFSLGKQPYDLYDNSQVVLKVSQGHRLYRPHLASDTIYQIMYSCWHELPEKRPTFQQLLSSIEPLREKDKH
Briefly: Selectivity interaction (KinomeScan (DiscoverX)) EUB0000229b BMX. As to conditions: at 10 µM.

In assay [13] the target is Fibroblast growth factor receptor 1 (Homo sapiens, UniProt P11362). Nature of the assay: Selectivity interaction (KinomeScan (DiscoverX)) EUB0000229b FGFR1. The conditions noted are these: at 10 µM.
Fibroblast growth factor receptor 1, sequence (P11362 22-822 limits assumed): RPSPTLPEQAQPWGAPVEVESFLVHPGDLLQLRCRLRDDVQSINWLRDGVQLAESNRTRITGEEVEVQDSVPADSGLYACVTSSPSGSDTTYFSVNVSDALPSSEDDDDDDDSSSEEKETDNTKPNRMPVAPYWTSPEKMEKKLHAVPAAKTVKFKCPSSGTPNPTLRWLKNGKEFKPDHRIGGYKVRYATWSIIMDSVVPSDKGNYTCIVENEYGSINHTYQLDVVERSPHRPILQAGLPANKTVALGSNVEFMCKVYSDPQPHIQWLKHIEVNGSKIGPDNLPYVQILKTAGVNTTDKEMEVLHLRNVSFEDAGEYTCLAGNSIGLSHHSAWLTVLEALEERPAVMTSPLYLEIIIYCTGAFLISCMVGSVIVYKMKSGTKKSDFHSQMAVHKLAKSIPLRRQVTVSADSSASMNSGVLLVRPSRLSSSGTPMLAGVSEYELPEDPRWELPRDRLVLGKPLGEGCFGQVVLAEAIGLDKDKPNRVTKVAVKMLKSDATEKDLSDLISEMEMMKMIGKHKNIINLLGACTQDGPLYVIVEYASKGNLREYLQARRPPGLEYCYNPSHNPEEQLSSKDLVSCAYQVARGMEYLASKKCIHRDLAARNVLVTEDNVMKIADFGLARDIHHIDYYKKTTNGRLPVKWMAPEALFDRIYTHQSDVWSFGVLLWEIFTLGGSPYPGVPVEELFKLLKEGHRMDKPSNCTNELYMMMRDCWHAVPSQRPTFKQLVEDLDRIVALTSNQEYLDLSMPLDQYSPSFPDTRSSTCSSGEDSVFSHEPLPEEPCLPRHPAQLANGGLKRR
Assay [14] addresses Serine/threonine-protein kinase Nek7 (Homo sapiens) (UniProt Q8TDX7). Briefly: Selectivity interaction (Kinase panel (DSF assay)) EUB0001559a NEK7. In general terms: In DSF a fluorescence change marks the thermal transition of the protein.
The target of assay [15] is TGF-beta receptor type-2 (Homo sapiens) (UniProt P37173). Nature of the assay: Selectivity interaction (KinomeScan (DiscoverX)) EUB0001619a TGFBR2. The conditions noted are these: at 1 µM.

MAP/microtubule affinity-regulating kinase 3 (Homo sapiens), sequence (P27448 whole entry, looked up): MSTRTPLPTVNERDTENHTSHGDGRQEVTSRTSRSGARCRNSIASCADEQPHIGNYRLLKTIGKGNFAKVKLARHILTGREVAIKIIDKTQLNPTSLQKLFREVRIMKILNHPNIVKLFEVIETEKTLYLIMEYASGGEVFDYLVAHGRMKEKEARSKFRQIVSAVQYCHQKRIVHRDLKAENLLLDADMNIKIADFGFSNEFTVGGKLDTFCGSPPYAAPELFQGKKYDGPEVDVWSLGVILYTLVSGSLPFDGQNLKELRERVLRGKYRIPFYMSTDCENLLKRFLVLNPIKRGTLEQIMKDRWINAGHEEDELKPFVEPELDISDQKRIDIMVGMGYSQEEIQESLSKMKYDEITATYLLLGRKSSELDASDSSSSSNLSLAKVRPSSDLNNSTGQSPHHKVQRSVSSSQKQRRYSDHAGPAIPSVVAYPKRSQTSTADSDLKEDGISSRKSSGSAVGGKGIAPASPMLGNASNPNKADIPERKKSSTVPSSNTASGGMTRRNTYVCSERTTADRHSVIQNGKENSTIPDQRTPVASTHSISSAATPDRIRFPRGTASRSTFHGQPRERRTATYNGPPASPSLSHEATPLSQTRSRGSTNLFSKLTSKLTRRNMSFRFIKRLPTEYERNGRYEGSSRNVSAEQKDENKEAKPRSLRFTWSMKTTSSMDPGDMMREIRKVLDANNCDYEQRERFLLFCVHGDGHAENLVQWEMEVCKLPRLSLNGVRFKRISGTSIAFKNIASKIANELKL
Serine/threonine-protein kinase Nek7 (Homo sapiens), sequence (Q8TDX7 whole entry, looked up): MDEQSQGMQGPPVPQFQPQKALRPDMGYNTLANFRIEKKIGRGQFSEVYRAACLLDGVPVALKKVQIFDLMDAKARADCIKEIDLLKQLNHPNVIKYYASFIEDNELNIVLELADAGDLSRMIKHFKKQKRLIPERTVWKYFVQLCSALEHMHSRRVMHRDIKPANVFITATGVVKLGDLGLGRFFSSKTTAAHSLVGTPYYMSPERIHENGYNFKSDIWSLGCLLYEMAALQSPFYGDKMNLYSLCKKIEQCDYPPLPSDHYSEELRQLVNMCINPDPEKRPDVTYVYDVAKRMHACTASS
Cyclin-dependent kinase 13, sequence (Q14004 whole entry, looked up): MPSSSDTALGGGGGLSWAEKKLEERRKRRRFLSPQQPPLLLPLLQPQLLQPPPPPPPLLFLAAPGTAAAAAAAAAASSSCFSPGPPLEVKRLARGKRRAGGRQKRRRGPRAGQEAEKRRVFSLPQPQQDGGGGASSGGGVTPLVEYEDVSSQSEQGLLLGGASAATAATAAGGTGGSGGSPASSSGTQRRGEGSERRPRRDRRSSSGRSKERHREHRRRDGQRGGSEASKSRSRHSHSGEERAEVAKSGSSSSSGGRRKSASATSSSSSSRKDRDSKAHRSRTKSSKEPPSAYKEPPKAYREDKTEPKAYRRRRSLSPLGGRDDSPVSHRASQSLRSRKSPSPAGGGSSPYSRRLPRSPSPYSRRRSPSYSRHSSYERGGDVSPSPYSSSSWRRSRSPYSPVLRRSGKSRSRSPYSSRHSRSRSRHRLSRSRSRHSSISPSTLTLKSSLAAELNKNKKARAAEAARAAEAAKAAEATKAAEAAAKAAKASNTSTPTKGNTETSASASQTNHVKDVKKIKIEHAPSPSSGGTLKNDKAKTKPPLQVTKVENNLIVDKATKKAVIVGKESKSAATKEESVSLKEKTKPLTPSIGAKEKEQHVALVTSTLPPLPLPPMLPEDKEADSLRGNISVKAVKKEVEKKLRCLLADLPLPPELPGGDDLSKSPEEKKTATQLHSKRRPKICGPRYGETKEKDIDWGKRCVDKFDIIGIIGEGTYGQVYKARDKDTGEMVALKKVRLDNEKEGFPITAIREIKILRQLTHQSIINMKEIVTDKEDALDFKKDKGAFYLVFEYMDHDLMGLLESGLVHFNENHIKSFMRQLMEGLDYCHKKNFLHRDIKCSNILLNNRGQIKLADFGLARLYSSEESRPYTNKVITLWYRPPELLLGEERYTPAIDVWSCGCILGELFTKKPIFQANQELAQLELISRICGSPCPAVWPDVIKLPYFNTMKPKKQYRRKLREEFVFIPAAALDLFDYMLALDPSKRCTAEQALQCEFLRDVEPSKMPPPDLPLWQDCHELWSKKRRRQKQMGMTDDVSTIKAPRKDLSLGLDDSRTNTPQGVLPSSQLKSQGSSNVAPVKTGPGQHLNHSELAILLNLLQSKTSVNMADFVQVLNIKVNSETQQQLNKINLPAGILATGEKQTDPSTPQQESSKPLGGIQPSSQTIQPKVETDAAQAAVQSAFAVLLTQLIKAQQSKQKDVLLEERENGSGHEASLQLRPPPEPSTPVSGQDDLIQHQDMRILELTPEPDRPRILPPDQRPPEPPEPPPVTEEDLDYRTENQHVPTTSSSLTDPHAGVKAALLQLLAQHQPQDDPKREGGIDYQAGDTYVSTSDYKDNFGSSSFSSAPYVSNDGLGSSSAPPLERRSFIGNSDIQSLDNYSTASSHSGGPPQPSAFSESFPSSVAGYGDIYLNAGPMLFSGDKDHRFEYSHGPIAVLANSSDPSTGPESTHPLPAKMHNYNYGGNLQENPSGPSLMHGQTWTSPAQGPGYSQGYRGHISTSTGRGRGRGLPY

As for `Cc1cc([C@@H](C)Nc2ccccc2C(=O)O)c2nc(N3CCOCC3)cc(=O)n2c1` [AZD-6482], the % of control in [1] was determined as 89%.
The compound `CN(C)C/C=C/C(=O)Nc1ccc(C(=O)N2CCCC(Nc3ncc(Cl)c(-c4c[nH]c5ccccc45)n3)C2)cc1` (stereo not given) returned a % of control in assay [2] of 90%.
Take `CCN(CC)CCCCNc1ncc2cc(-c3cc(OC)cc(OC)c3)c(NC(=O)NC(C)(C)C)nc2n1`: in assay [3], the % of control was 100%.
In assay [4], `CCC(=O)N1CCN(c2ccc(-n3c(=O)ccc4cnc5ccc(-c6cnc7ccccc7c6)cc5c43)cc2C(F)(F)F)CC1` registered a % of control of 100%.
In turn, `Cc1cc(F)c(C(=O)Nc2cccc(-c3nncn3C(C)C)n2)cc1-n1cnc(C2CC2)c1` gave a % of control in [5] of 100%.
For `Cn1cc(-n2cnc3c(NCc4nc5cc(Cl)c(Cl)cc5[nH]4)nc(N4CCOCC4)nc32)cn1`, the % of control in assay [6] was 11.7%. Besides, the figures for the % of inhibition in [7] and in [8] were -31.5% and 8.68%, respectively.
Turning to `CNC(=O)Nc1ccc(-c2nc(N3CC4CCC(C3)O4)c3cnn(C4CCC5(CC4)OCCO5)c3n2)cc1`, the % of control in assay [9] stood at 84%.
In the case of `CC[C@@H]1[C@H](F)C(=O)N[C@@H]1COc1nccc2cc(C(N)=O)c(OC)cc12` [ZIMLOVISERTIB], the results for the % of inhibition in assay [10] and in [11] were 18.4% and 23.2%, respectively.
For `COc1cc(N(C)c2ccnc3ccc(C(F)(F)F)cc23)cc(OC)c1OC`, the % binding amounted to 88% in assay [12] and 99% in [13].
`CN(C(=O)c1cnn2cccnc12)c1cc2c(cc1N1CCOCC1)C(=O)N(C[C@@H](F)C(C)(C)O)C2` yielded a dTM in assay [14] of 0.5 K.
In assay [15], `N#Cc1cccc(-c2c[nH]c3ncnc(N4CCOCC4)c23)c1` displayed a % of control of 100%.

The record behind these values is ChEMBL document CHEMBL5465560, “Selectivity Literature for EUbOPEN Chemogenomic Library” (2024).
